These results are taken from patent publication US20260258036A1, “INHIBITORS OF HUMAN ALDOSTERONE SYNTHASE (CYP11B2)” («TARGET MEDICALS» LIMITED LIABILITY COMPANY, priority 2022, published 2026).

The first assay concerns the target T1, recombinant CYP11B2 (Homo sapiens, UniProt P19099).
T1 sequence (P19099 25-503): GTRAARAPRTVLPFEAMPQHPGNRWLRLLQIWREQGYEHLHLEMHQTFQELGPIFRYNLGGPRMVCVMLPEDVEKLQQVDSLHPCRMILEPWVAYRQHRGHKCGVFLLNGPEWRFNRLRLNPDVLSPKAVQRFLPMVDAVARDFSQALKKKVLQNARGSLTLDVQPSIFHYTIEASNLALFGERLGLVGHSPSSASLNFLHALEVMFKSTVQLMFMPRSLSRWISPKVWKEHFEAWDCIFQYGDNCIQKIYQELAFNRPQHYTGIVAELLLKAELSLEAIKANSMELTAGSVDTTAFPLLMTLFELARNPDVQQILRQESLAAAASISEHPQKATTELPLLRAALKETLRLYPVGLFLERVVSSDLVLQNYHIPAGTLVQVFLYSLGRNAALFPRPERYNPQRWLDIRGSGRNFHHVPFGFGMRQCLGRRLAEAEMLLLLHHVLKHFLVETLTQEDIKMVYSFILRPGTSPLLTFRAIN
In words: Inhibition of CYP11B2 activity in a reconstructed enzyme system (HPLC with UV detector). The class given is biochemical. The conditions noted are these: compounds 1_xx; test compound final concentration ≤2 μM; corticosterone substrate; 30 minutes at 37° C.; read-out: Level of CYP11B2 activity inhibition. As to the method:
The authors of the present invention investigated the activity of the compounds according to the invention as inhibitors of CYP11 B2 when analyzed in a reconstructed system containing 0.5 μm recombinant CYP1 1B2, 0.3 μm human adrenodoxin reductase, 2 μm human adrenodoxin, 100 μm corticosterone as a control reaction to detect the formation of a product with using an HPLC system with a UV detector. The test compound is added to the reaction mixture to a final concentration of ≤2 μM. The concentrated protein mixture was diluted with buffer to a final volume of 0.5 ml, pre-incubated for 10 min at 37° C., followed by the addition of the substrate. Reactions are initiated by adding NADPH (nicotinamide adenine dinucleotide phosphate) to a final concentration of 0.25 mM with a regenerating system (glucose-6-phosphate and glucose-6-phosphate dehydrogenase) in 25 mM potassium phosphate buffer, pH 7.4, containing 0.1 mM DTT (dithiothreitol), 0.1% Tween-20.4 mM MgCl2 and incubated at 37° C. After 30 minutes of incubation, the reaction is stopped by adding 5 ml of dichloromethane. The organic phase is isolated by centrifugation, evaporation, dissolution in ethanol and transferred to a vial for HPLC studies. A C18 Luna 100 Å 250×4, 6 mm column was used on an Agilent Technologies 1200 series instrument (USA) with ethanol as the mobile phase.
Activity (a) is calculated as the amount of product in nmol per minute per 1 nmol of CYP.
where k is the correction factor (k=1 is used as the molar extinction coefficients of steroid substrates and products similar at a detection wavelength of 254 nm), As is the peak area of the substrate, cs is the concentration of the substrate, Ap is the peak area of the product, ce is the concentration of CYP (cytochrome P450), t is the reaction time.
The level of inhibition of CYP11 B2 activity is expressed as a percentage, where 0% is defined as no inhibition in reactions without test compound and 100% is absolute inhibition by test compound.
As usually defined, the inhibition is the change of the read-out against control, counted positive when it falls. Take `CN1CCC(Nc2c(F)cc(S(=O)(=O)n3ccc4c(-c5ccccn5)cncc43)cc2F)CC1` [Compound 1_21, N-(2,6-difluoro-4-((4-(pyridin-2-yl)-1H-pyrrolo[2,3-c]pyridin-1-yl)sulfonyl)phenyl)-1-methylpiperidin-4-amine]: the inhibition at 2 µM was 50 to 100%. The same measure, in the same setting: under `O=S(=O)(c1cc(F)c(N2CCSCC2)c(F)c1)n1ccc2c(-c3ccccn3)cncc21` [Compound 1_23, 4-(2,6-difluoro-4-((4-(pyridin-2-yl)-1H-pyrrolo[2,3-c]pyridin-1-yl)sulfonyl)phenyl)thiomorpholine] stands 50 to 100%; under `CN1CCC2CN(c3c(F)cc(S(=O)(=O)n4ccc5c(-c6ccccn6)cncc54)cc3F)CC2C1` (stereo not shown) [Compound 1_25, 1-((3,5-difluoro-4-(5-methyloctahydro-2H-pyrrolo[3,4-c]pyridin-2-yl)phenyl)sulfonyl)-4-(pyridin-2-yl)-1H-pyrrolo[2,3-c]pyridine], 50 to 100%. Still for that read-out and setting: as for `O=S(=O)(c1cc(F)c(O)c(F)c1)N1CCc2c(-c3ccccn3)cncc21` [Compound 1_16, 2,6-difluoro-4-((4-(pyridin-2-yl)-2,3-dehydro-H-pyrrolo[2,3-c]pyridin-1-yl)sulfonyl)phenol], the figure is 50 to 100%. Same read-out and setting: as for `COc1c(C)cc(S(=O)(=O)n2ccc3c(-c4ncc(C)cn4)cncc32)cc1C` [Compound 1_03, 1-((4-methoxy-3,5-dimethylphenyl)sulfonyl)-4-(5-methylpyrimidin-2-yl)-1H-pyrrolo[2,3-c]pyridine], the figure is 50 to 100%; as for `CN1CCN(c2c(F)cc(S(=O)(=O)n3ccc4c(-c5nc(C#N)co5)cncc43)cc2F)CC1` [Compound 1_27, 2-(1-((3,5-difluoro-4-(4-methylpiperazin-1-yl)phenyl)sulfonyl)-1H-pyrrolo[2,3-c]pyridin-4-yl)oxazol-4-carbonitrile], 50 to 100%. With `CN(C)c1c(F)cc(S(=O)(=O)n2ccc3c(-c4ccccn4)cncc32)cc1F` [Compound 1_09, 2,6-difluoro-N,N-dimethyl-4-((4-(pyridin-2-yl)-1H-pyrrolo[2,3-c]pyridin-1-yl)sulfonyl)aniline], the inhibition at 2 µM lay within 50 to 100%. For the compound `Cc1csc(N(C)c2c(F)cc(S(=O)(=O)n3ccc4c(-c5ccccn5)cncc43)cc2F)n1` [Compound 1_20, N-(2,6-difluoro-4-((4-(pyridin-2-yl)-1H-pyrrolo[2,3-c]pyridin-1-yl)sulfonyl)phenyl)-N,4-dimethylthiazol-2-amine], the inhibition at 2 µM was in the range of 50 to 100%. For `CN1CCN(c2c(F)cc(S(=O)(=O)n3ccc4c(-c5ccccn5)cncc43)cc2F)CC1` [Compound 1_12, 1-((3,5-difluoro-4-(4-methylpiperazin-1-yl)phenyl)sulfonyl)-4-(pyridin-2-yl)-1H-pyrrolo[2,3-c]pyridine], the inhibition at 2 µM is 50 to 100%. The same measure, in the same setting: under `COc1c(F)cc(S(=O)(=O)n2ccc3c(-c4ccccn4)cncc32)cc1F` [Compound 1_18, 1-((3,5-difluoro-4-methoxyphenyl)sulfonyl)-4-(pyridin-2-yl)-1H-pyrrolo[2,3-c]pyridine] stands 50 to 100%.

For `O=S(=O)(c1cc(F)c(N2CCC3(CCNC3)C2)c(F)c1)n1ccc2c(-c3ccccn3)cncc21` (stereo not shown) [Compound 1_26, 2-(2,6-difluoro-4-((4-(pyridin-2-yl)-1H-pyrrolo[2,3-c]pyridin-1-yl)sulfonyl)phenyl)-2,7-diazaspiro[4.4]nonane], the inhibition at 2 µM fell in the range of 50 to 100%. For `CC1CN(c2c(F)cc(S(=O)(=O)n3ccc4c(-c5ccccn5)cncc43)cc2F)C1` [Compound 1_19, 1-((3,5-difluoro-4-(3-methylazetidin-1-yl)phenyl)sulfonyl)-4-(pyridin-2-yl)-1H-pyrrolo[2,3-c]pyridine], the inhibition at 2 µM was 50 to 100%.

On to `COc1c(C)cc(S(=O)(=O)n2ccc3c(-c4ccc(C)nn4)cncc32)cc1C` [Compound 1_04, 1-(4-methoxy-3,5-dimethylphenyl)sulfonyl-4-(6-methylpyridazin-3-yl)pyrrolo[2,3-c]pyridine], for which the inhibition at 2 µM fell in the range of 50 to 100%.

Still in this assay, the particulars now being: compounds 2_xx, 3_xx, 4_01; test compound final concentration ≤2 μM; corticosterone substrate; 30 minutes at 37° C.
With `Cl.O=S(=O)(c1cc(F)c(N2CCNCC2)c(F)c1)n1ccc2c(-c3ccccn3)cncc21` [Compound 3_27, 1-((3,5-difluoro-4-(piperazin-1-yl)phenyl)sulfonyl)-4-(pyridin-2-yl)-1H-pyrrolo[2,3-c]pyridine], the “Level of CYP11B2 activity inhibition” value was “++ (inhibition of CYP11B2 activity in the range of 20-100% (++))”.

The same assay, now with this note: compounds 2_xx, 3_xx, 4_01; test compound final concentration ≤2 μM; corticosterone substrate; 30 minutes at 37° C.; read-out: Level of CYP11B2 activity inhibition.
On to `CN1CC2CN(c3c(F)cc(S(=O)(=O)n4ccc5c(-c6ccc(C#N)nc6)cncc54)cc3F)CC2C1` (stereo not shown) [Compound 3_24, 5-(1-((3,5-difluoro-4-(5-methylhexahydropyrrolo[3,4-c]pyrrol-2(1H)-yl)phenyl)sulfonyl)-1H-pyrrolo[2,3-c]pyridin-4-yl)picolinonitrile], for which the inhibition at 2 µM lay within 35 to 100%.

Take `CN1CC2CN(c3c(F)cc(S(=O)(=O)n4ccc5c(-c6ccc(C(=O)NC(C)(C)C)nc6)cncc54)cc3F)CC2C1` (stereo not shown) [Compound 2_03, N-(tert-butyl)-5-(1-((3,5-difluoro-4-(5-methylhexahydropyrrolo[3,4-c]pyrrol-2(1H)-yl)phenyl)sulfonyl)-1H-pyrrolo[2,3-c]pyridin-4-yl)picolinamide]: the inhibition at 2 µM was 35 to 100%.

Turning to `CN1CCN(c2c(F)cc(S(=O)(=O)n3ccc4c(-c5ccccn5)cncc43)cc2F)CC1=O` [Compound 2_01, 4-(2,6-difluoro-4-((4-(pyridin-2-yl)-1H-pyrrolo[2,3-c]pyridin-1-yl)sulfonyl)phenyl)-1-methylpiperazin-2-one], the inhibition at 2 µM lay within 35 to 100%. `CNc1ccc(-c2cncc3c2ccn3S(=O)(=O)c2cc(F)c(N3CCN(C)CC3)c(F)c2)nc1` [Compound 3_02, 6-(1-((3,5-difluoro-4-(4-methylpiperazin-1-yl)phenyl)sulfonyl)-1H-pyrrolo[2,3-c]pyridin-4-yl)-N-methylpyridin-3-amine]: the inhibition at 2 µM was 35 to 100%. Still for that read-out and setting: as for `CN1CC2(C1)CN(c1c(F)cc(S(=O)(=O)n3ccc4c(-c5ccccn5)cncc43)cc1F)C2` [Compound 3_16, 1-((3,5-difluoro-4-(6-methyl-2,6-diazaspiro[3.3]heptan-2-yl)phenyl)sulfonyl)-4-(pyridin-2-yl)-1H-pyrrolo[2,3-c]pyridine], the figure is 35 to 100%. For the compound `CN1CC2CN(c3c(F)cc(S(=O)(=O)n4ccc5c(-c6cnc(C#N)cn6)cncc54)cc3F)CC2C1` (stereo not shown) [Compound 3_23, 5-(1-((3,5-difluoro-4-(5-methylhexahydropyrrolo[3,4-c]pyrrol-2(1H)-yl)phenyl)sulfonyl)-1H-pyrrolo[2,3-c]pyridin-4-yl)pyrazine-2-carbonitrile], the inhibition at 2 µM lay within 35 to 100%. Turning to `CN1CC2CC(C1)N2c1c(F)cc(S(=O)(=O)n2ccc3c(-c4ccccn4)cncc32)cc1F` [Compound 3_18, 6-(2,6-difluoro-4-((4-(pyridin-2-yl)-1H-pyrrolo[2,3-c]pyridin-1-yl)sulfonyl)phenyl)-3-methyl-3,6-diazabicyclo[3.1.1]heptane], the inhibition at 2 µM was 35 to 100%. The same measure, in the same setting: as for `CNc1ccc(-c2cncc3c2ccn3S(=O)(=O)c2cc(F)c(N3CCN(C)CC3)c(F)c2)nn1` [Compound 3_07, 6-(1-((3,5-difluoro-4-(4-methylpiperazin-1-yl)phenyl)sulfonyl)-1H-pyrrolo[2,3-c]pyridin-4-yl)-N-methylpyridazin-3-amine], the figure is 35 to 100%.
